Reference: US7345073B2, “Method for treating cryptorchidism” (Hormos Medical Ltd., priority 2003, dated 2008)

What was measured:
[1] = tested on: cryptorchidism (non-descended testes); conditions: according to one study; cited from earlier work
[2] = tested on: Aromatase over expressing mice AROM+ (line 021); test: Testes descent (palpation and opening the animal) after six weeks of p.o. treatment, AROM+ mice; type: in vivo, mouse; conditions: AROM+ (021) male mice, ten mice; finrozole 10 mg/kg p.o. daily for six weeks
Method: (§1) The aromatase inhibitor finrozole {MPV-2213ad (10695U, without purification, Hormos Medical Ltd.} was the test compound. Vehicle (CMC-solution) was used as control substance. CMC-solution was prepared as follows: 0.25 g carboxylmethylcellulosa (CMC) (lot. 939512, Tamro OYJ) was weighed and solubilized in 50 ml of deionized (Milli-Q) water. The solution was prepared once a week and stored at +4° C. The dose level of finrozole 10 mg/kg dose level was used. The vehicle-test/control-solution, which was given to the test animals, was prepared daily as follows: the appropriate amount of finrozole was weighed in a transparent glass mortar. A few drops of vehicle were added and the mixture was thoroughly mixed. After this ⅓ of the final volume of vehicle was added to the mortar and placed into an ultrasonic incubator for five minutes. This procedure was done total of three times to reach the final volume.
(§2) Aromatase over expressing mice AROM^+ were used in this study. The mice were maintained under standard laboratory conditions at 12:12 light/dark cycle, and received free access to soyfree pelleted food (SDS, Witham, Essex, UK), and tap water.
We have generated a transgenic mouse model bearing the human ubiquitin C promoter/human P450 aromatase fusion gene (AROM^+). […] The AROM^+ males present with a multitude of severe structural and functional abnormalities of the reproductive system, such as cryptochidism, dysmorphic semiferous tubules and disrupted spermatogenesis. The males also have small or rudimentary accessory sex glands with abnormal morphology, a prominent prostatic utricle with squamous epithelial metaplasia, and abnormal morphology of ejaculatory duct and vas deferens. In addition, the abdominal wall muscle layer is thin, and the adrenals are enlarged with cortical hyperplasia. […] Some of the disorders in reproductive system, furthenmore, can be explained by the fact that the AROM^+ males are hypo-androgenic. […]

[3] = tested on: wild type FVB/N mice; test: Testes descent (palpation and opening the animal) after six weeks of p.o. treatment, wild type mice; type: in vivo, mouse; conditions: wild type FVB/N male mice, nine mice; finrozole 10 mg/kg p.o. daily for six weeks
Method: as §1
(§3) In the experiment there was […] different kind of groups of male mice, ten animals in each group. One control group (wild type FVB/N) received vehicle, as well as the other control (021 line) group. The last groups were treated with finrozole (10 mg/kg).
(§4) The dosing (4 ml solution/kg) of the animals took place p.o. daily for six weeks. On Saturdays, however, double dose of the test compounds was given to animals. On sundays there was no treatment.
(§5) The trial was conducted in total of 39 mice. […]

[4] = tested on: Aromatase over expressing mice AROM+ (line 021); test: Relative testes weights (testes weight/animal weight), AROM+ mice; type: in vivo, mouse; conditions: AROM+ (021) mice, n = 10; finrozole 10 mg/kg p.o. daily for six weeks; SD 0.0003
Method: as §1, §2
We have generated a transgenic mouse model bearing the human ubiquitin C promoter/human P450 aromatase fusion gene (AROM^+). […]

[5] = tested on: wild type FVB/N mice; test: Relative testes weights (testes weight/animal weight), wild type mice; type: in vivo, mouse; conditions: n = 7, finrozole 10 mg/kg p.o. daily for six weeks, SD 0.0003
Method: as §1, §3, §4, §5

LHRH: lutenizing-hormone releasing hormone, hormonal treatment of cryptorchidism (QHWSYGLRPG; Gonadoliberin-1; UniProt P01148 24-33, looked up)
efficacy in cases of true non-descended testes [1]: ineffective

N#Cc1ccc(C(C(O)Cc2ccc(F)cc2)n2cncn2)cc1 (single isomer, unassigned) [finrozole, 1-[1-(4-cyanophenyl)-3-(4-fluorophenyl)-2-hydroxypropyl]-1,2,4-triazole, diasteroisomer a+d]
Number of descended testes [2]: 17 | Number of partly descended testes [2]: 2 | Number of undescended testes [2]: 1 | Number of descended testes [3]: 18 | Relative testes weights (testes weight/animal weight) [4]: 0.0033 | Relative testes weights (testes weight/animal weight) [5]: 0.0027
